This experiment has as its target human NaV 1.8 (Homo sapiens, UniProt Q9Y5Y9). Nature of the experiment: E-VIPR assay detecting and measuring NaV inhibition properties. Format: cell-based. Particulars: HEK cells expressing truncated human NaV 1.8. From the text:
Sodium ion channels are voltage-dependent proteins that can be activated by inducing membrane voltage changes by applying electric fields. The electrical stimulation instrument and methods of use, referred to as E-VIPR, are described in International Publication No. WO 2002/008748 A3 and C.-J. Huang et al. Characterization of voltage-gated sodium channel blockers by electrical stimulation and fluorescence detection of membrane potential, 24 Nature Biotech. 439-46 (2006), both of which are incorporated by reference in their entirety. The instrument comprises a microtiter plate handler, an optical system for exciting the coumarin dye while simultaneously recording the coumarin and oxonol emissions, a waveform generator, a current- or voltage-controlled amplifier, and parallel electrode pairs that are inserted into assay plate wells. Under integrated computer control, this instrument passes user-programmed electrical stimulus protocols to cells within the wells of the microtiter plate.
16-20 hours prior to running the assay on E-VIPR, HEK cells expressing a truncated form of human NaV 1.8 with full channel activity were seeded into microtiter 384-well plates, pre-coated with matrigel, at a density of 25,000 cells per well. 2.5-5% KIR2.1 Bacmam virus was added to the final cell suspension before seeding into cell plates. HEK cells were grown in Dulbecco's Modified Eagle's Medium (DMEM) supplemented with 10% FBS (Fetal Bovine Serum, qualified; Sigma #F4135), 1% NEAA (Non-Essential Amino Acids, Gibco #11140), 1% HEPES (Gibco #15630), 1% Pen-Strep (Penicillin-Streptomycin; Gibco #15140) and 5 μg/ml Blasticidin (Gibco #R210-01). Cells were expanded in vented cap cell culture flasks, with 90-95% humidity and 5% CO2.
Human Serum (HS, Millipore #S1P1-01KL, or Sigma SLBR5469V and SLBR5470V as a 50%/50% mixture, for 25% assay final concentration) • Bath 1 Buffer: • Sodium Chloride 160 mM (9.35 g/L), Potassium Chloride, 4.5 mM (0.335 g/L), Glucose 10 mM (1.8 g/L), Magnesium Chloride (Anhydrous) 1 mM (0.095 g/L), Calcium Chloride 2 mM (0.222 g/L), HEPES 10 mM (2.38 g/L) in water. • Na/TMA C1 Bath 1 Buffer: • Sodium Chloride 96 mM (5.61 g/L), Potassium Chloride 4.5 mM (0.335 g/L), Tetramethylammonium (TMA)-Cl 64 mM (7.01 g/L), Glucose 10 mM (1.8 g/L), Magnesium Chloride (Anhydrous) 1 mM (0.095 g/L), Calcium Chloride 2 mM (0.222 g/L) HEPES 10 mM (2.38 g/L) in water. • Hexyl Dye Solution (2× concentration): • Bath 1 Buffer containing 0.5% P-cyclodextrin (made fresh prior to each use, Sigma #C4767), 8 μM CC2-DMPE and 2 μM DiSBAC6(3). The solution was made by adding 10% Pluronic F127 stock equal to combined volumes of CC2-DMPE and DiSBAC6(3). The order of preparation was first mix Pluronic and CC2-DMPE, then add DiSBAC6(3), then while vortexing add Bath 1/p-Cyclodextrin.
Compound Loading Buffer (2× concentration): Na/TMA C1 Bath1 Buffer containing HS (omitted in experiments run in the absence of human serum (HS)) 50%, VABSC-1 1 mM, BSA 0.2 mg/ml (in Bath-1), KCl 9 mM, DMSO 0.625%.
1) To reach the final concentration in each well, 375 nL of each compound was pre-spotted (in neat DMSO) into polypropylene compound plates at 240× desired final concentration from an intermediate stock concentration of 0.075 mM, in an 11 point dose response, 3-fold dilution, resulting in a top dose of 300 nM final concentration in the cell plate. Vehicle control (neat DMSO), and positive control (an established NaV1.8 inhibitor, 25 μM final in assay in DMSO) were added manually to the outermost columns of each plate respectively. The compound plate was backfilled with 45 μL per well of Compound Loading Buffer resulting in a 240 fold dilution of compound following a 1:1 transfer of compound into the cell plate (see Step 6). Final DMSO concentration for all wells in the assay was 0.625% (0.75% DMSO was supplemented to the Compound Loading Buffer for a final DMSO concentration of 0.625%). […]

The mark [1] stands for this setting: no human serum, read-out: IC50 in the E-VIPR Assay.

Each structure is given as a SMILES string. pIC50: −log10 of the molar value. Read-outs that look alike come from different tables or passages of the source.

As a reminder, the pIC50 is −log10 of the IC50, conventionally taken in molar units.

Sequence of human NaV 1.8 (Q9Y5Y9 126-399 limits assumed): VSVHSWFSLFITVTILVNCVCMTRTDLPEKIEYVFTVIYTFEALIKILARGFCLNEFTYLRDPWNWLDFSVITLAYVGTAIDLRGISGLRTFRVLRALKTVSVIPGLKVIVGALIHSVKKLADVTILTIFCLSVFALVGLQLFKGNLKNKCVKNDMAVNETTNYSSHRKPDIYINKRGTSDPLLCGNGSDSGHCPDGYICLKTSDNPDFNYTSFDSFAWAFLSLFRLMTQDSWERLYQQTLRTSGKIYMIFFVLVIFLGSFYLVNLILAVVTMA
Sequence of human NaV 1.8 (Q9Y5Y9 660-890 limits assumed): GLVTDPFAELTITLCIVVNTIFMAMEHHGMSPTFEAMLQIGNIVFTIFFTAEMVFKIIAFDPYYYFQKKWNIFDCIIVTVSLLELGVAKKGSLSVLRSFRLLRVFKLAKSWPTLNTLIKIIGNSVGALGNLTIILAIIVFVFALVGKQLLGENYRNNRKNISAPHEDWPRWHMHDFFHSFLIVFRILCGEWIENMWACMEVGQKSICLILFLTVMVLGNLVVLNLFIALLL
Sequence of human NaV 1.8 (Q9Y5Y9 1148-1722 limits assumed): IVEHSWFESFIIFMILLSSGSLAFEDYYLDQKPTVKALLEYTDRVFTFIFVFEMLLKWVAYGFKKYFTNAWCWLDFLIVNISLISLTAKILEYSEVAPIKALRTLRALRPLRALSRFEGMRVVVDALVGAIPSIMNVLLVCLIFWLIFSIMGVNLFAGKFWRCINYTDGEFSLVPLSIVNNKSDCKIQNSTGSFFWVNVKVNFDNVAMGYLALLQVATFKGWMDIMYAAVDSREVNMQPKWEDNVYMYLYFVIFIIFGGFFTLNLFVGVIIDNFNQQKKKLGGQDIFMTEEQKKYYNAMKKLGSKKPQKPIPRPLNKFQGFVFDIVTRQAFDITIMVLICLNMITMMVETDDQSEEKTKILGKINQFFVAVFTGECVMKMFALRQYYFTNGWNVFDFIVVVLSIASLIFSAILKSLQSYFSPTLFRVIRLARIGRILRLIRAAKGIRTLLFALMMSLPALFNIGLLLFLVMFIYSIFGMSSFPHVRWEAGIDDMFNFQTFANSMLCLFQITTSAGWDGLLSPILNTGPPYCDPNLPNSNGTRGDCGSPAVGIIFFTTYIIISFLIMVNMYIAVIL

For `COc1c([C@H]2[C@H](C(=O)Nc3ccnc(C(C)(O)CO)c3)O[C@@](C)(C(F)(F)F)[C@H]2C)ccc(F)c1F` (single isomer, unassigned) [Compound 202, rel-(2R*,3S*,4S*,5R*)-3-(3,4-difluoro-2-methoxyphenyl)-N-(2-(1,2-dihydroxypropan-2-yl)pyridin-4-yl)-4,5-dimethyl-5-(trifluoromethyl)tetrahydrofuran-2-carboxamide], under setting [1], the pIC50 is more than 8.00.

Consider `C=C(CO)COc1c([C@H]2[C@H](C(=O)Nc3ccc4cnnn4c3)O[C@@](C)(C(F)(F)F)[C@H]2C)ccc(F)c1F` [Compound 622, (2R,3S,4S,5R)-3-[3,4-difluoro-2-[2-(hydroxymethyl)allyloxy]phenyl]-4,5-dimethyl-N-(triazolo[1,5-a]pyridin-6-yl)-5-(trifluoromethyl)tetrahydrofuran-2-carboxamide], for which the pIC50 under setting [1] is more than 8.00.

As to `C[C@@H]1CN(C)CC(=O)N1c1cc(NC(=O)[C@@H]2O[C@@](C)(C(F)(F)F)[C@@H](C)[C@H]2c2ccc(F)c(F)c2OCCO)ccn1` [Compound 653, (2R,3S,4S,5R)-3-(3,4-difluoro-2-(2-hydroxyethoxy)phenyl)-N-(2-((R)-2,4-dimethyl-6-oxopiperazin-1-yl)pyridin-4-yl)-4,5-dimethyl-5-(trifluoromethyl)tetrahydrofuran-2-carboxamide], the pIC50 under setting [1] is 7.00 to 8.00.

With `COc1c([C@H]2[C@H](C(=O)Nc3cc(C(O)CF)ncc3F)O[C@@](C)(C(F)(F)F)[C@H]2C)ccc(F)c1F` (single isomer, unassigned) [Compound 24], the pIC50 under setting [1] was more than 8.00.

Regarding `C[C@H]1[C@@H](c2ccc(F)c(F)c2OCCO)[C@H](C(=O)Nc2cnnn2C)O[C@@]1(C)C(F)(F)F` [Compound 573, (2R,3S,4S,5R)-3-(3,4-difluoro-2-(2-hydroxyethoxy)phenyl)-4,5-dimethyl-N-(1-methyl-1H-1,2,3-triazol-5-yl)-5-(trifluoromethyl)tetrahydrofuran-2-carboxamide], the pIC50 under setting [1] was 6.00 to 7.00.

Regarding `COc1c([C@H]2[C@H](C(=O)NCC(C)N3CCN(C)CC3)O[C@@](C)(C(F)(F)F)[C@H]2C)ccc(F)c1F` (stereo partly drawn) [Compound 293, (2R,3S,4S,5R)-3-(3,4-difluoro-2-methoxyphenyl)-4,5-dimethyl-N-(2-(4-methylpiperazin-1-yl)propyl)-5-(trifluoromethyl)tetrahydrofuran-2-carboxamide], under setting [1], the pIC50 was not above 6.00.

`COc1c(C2C(C(=O)Nc3ccnc(CO)c3)OC(C)(C(F)(F)F)C2C)ccc(F)c1F` (stereo not drawn) [Compound 61, 3-(3,4-difluoro-2-methoxy-phenyl)-N-[2-(hydroxymethyl)-4-pyridyl]-4,5-dimethyl-5-(trifluoromethyl)tetrahydrofuran-2-carboxamide]: the pIC50 under setting [1] is not above 6.00.

Consider `COc1c([C@H]2[C@H](C(=O)Nc3ccnc([S+](C)[O-])c3)O[C@@](C)(C(F)(F)F)[C@H]2C)ccc(F)c1F` (single isomer, unassigned) [Compound 9], for which the pIC50 (in the presence of human serum (compound numbers followed by *), read-out: IC50 in the E-VIPR Assay, performed in the presence of human serum) is more than 8.00.

Consider `CNS(=O)(=O)c1cc(NC(=O)C2OC(C)(C(F)(F)F)C(C)C2c2ccc(F)c(F)c2OC)ccn1` (single isomer, unassigned) [Compound 456, 3-(3,4-difluoro-2-methoxy-phenyl)-4,5-dimethyl-N-[2-(methylsulfamoyl)-4-pyridyl]-5-(trifluoromethyl)tetrahydrofuran-2-carboxamide], for which, under setting [1], the negative-log IC50 (pIC50) is more than 8.00.

With `COc1c([C@H]2[C@H](C(=O)Nc3cc4n(n3)CCOC4)O[C@@](C)(C(F)(F)F)[C@H]2C)ccc(F)c1F` [Compound 321, (2R,3S,4S,5R)-3-(3,4-difluoro-2-methoxyphenyl)-N-(6,7-dihydro-4H-pyrazolo[5,1-c][1,4]oxazin-2-yl)-4,5-dimethyl-5-(trifluoromethyl)-tetrahydrofuran-2-carboxamide], the pIC50 under setting [1] is not above 6.00.

Take `Cc1nn(C(F)F)cc1NC(=O)[C@@H]1O[C@@](C)(C(F)(F)F)[C@@H](C)[C@H]1c1ccc(F)c(F)c1CN1CCN(C)CC1` [Compound 674, (2R,3S,4S,5R)-3-(3,4-difluoro-2-((4-methylpiperazin-1-yl)methyl)phenyl)-N-(1-(difluoromethyl)-3-methyl-1H-pyrazol-4-yl)-4,5-dimethyl-5-(trifluoromethyl)tetrahydrofuran-2-carboxamide]: under setting [1], the pIC50 is 6.00 to 7.00.

With `COc1c([C@@H]2[C@@H](C(=O)Nc3ccnc(N4CCN(C)CC4=O)c3)O[C@](C)(C(F)(F)F)[C@@H]2C)ccc(F)c1C(F)F` (single isomer, unassigned) [Compound 163], the pIC50 under setting [1] was 6.00 to 7.00.

On to `COc1c([C@H]2[C@H](C(=O)Nc3ccnc(OC4CCN(C)C4=O)c3)O[C@@](C)(C(F)(F)F)[C@H]2C)ccc(F)c1F` (single isomer, unassigned) [Compound 197, rel-(2R*,3S*,4S*,5R*)-3-(3,4-difluoro-2-methoxyphenyl)-4,5-dimethyl-N-(2-((1-methyl-2-oxopyrrolidin-3-yl)oxy)pyridin-4-yl)-5-(trifluoromethyl)tetrahydrofuran-2-carboxamide], for which the pIC50 under setting [1] was more than 8.00.

On to `COc1c([C@H]2[C@H](C(=O)Nc3ccnc(N4C[C@@H]5CC[C@@H](N5)C4=O)c3)O[C@@](C)(C(F)(F)F)[C@H]2C)ccc(F)c1F` (single isomer, unassigned) [Compound 494, rel-(2R*,3S*,4S*,5R*)-3-(3,4-difluoro-2-methoxyphenyl)-4,5-dimethyl-N-(2-((1R,5S)-2-oxo-3,8-diazabicyclo[3.2.1]octan-3-yl)pyridin-4-yl)-5-(trifluoromethyl)tetrahydrofuran-2-carboxamide], for which the pIC50 under setting [1] was 7.00 to 8.00.

With `COc1c(C2C(C(=O)Nc3cccc(P(C)(C)=O)c3)OC(C)(C(F)(F)F)C2C)ccc(F)c1F` (single isomer, unassigned) [Compound 41, 3-(3,4-difluoro-2-methoxy-phenyl)-N-(3-dimethylphosphorylphenyl)-4,5-dimethyl-5-(trifluoromethyl)tetrahydrofuran-2-carboxamide], under setting [1], the pIC50 is not above 6.00.

As for `COc1c([C@H]2[C@H](C(=O)NCC(C)(C)C(N)=O)O[C@@](C)(C(F)(F)F)[C@H]2C)ccc(F)c1F` [Compound 282, (2R,3S,4S,5R)-N-(3-amino-2,2-dimethyl-3-oxopropyl)-3-(3,4-difluoro-2-methoxyphenyl)-4,5-dimethyl-5-(trifluoromethyl)tetrahydrofuran-2-carboxamide], the pIC50 under setting [1] is not above 6.00.

Turning to `COc1c([C@H]2[C@H](C(=O)Nc3ccnc(OC4CCN(C)C4=O)c3)O[C@@](C)(C(F)(F)F)[C@H]2C)ccc(F)c1F` (single isomer, unassigned) [Compound 198, rel-(2R*,3S*,4S*,5R*)-3-(3,4-difluoro-2-methoxyphenyl)-4,5-dimethyl-N-(2-((1-methyl-2-oxopyrrolidin-3-yl)oxy)pyridin-4-yl)-5-(trifluoromethyl)tetrahydrofuran-2-carboxamide], the pIC50 under setting [1] is 7.00 to 8.00.

Regarding `COc1c([C@H]2[C@H](C(=O)Nc3cnc(C)n3C)O[C@@](C)(C(F)(F)F)[C@H]2C)ccc(F)c1F` [Compound 447, (2R,3S,4S,5R)-3-(3,4-difluoro-2-methoxy-phenyl)-N-(2,3-dimethylimidazol-4-yl)-4,5-dimethyl-5-(trifluoromethyl)tetrahydrofuran-2-carboxamide], the pIC50 under setting [1] was 7.00 to 8.00.

Values taken from US20240368135A1 (VERTEX PHARMACEUTICALS INCORPORATED, priority 2021, published 2024).
